These results are taken from ChEMBL document CHEMBL5230110, “FabI (enoyl acyl carrier protein reductase) - A potential broad spectrum therapeutic target and its inhibitors” (Eur J Med Chem, 2020).

In the test the target is Enoyl-[acyl-carrier-protein] reductase [NADH] (Mycobacterium tuberculosis, UniProt P9WGR1, S94A).

pIC50: −log10 of the molar value.

As usually defined, the pIC50 is the IC50 on a negative log10 scale, so that one unit is a factor of ten. High values mean a small IC50, low ones a large IC50. As for `Oc1cc2ccc1Oc1ccc(cc1)CCc1ccc(c(O)c1)Oc1ccc(cc1)CC2`, the pIC50 was 5.33.
